Laboratory results taken from ChEMBL document CHEMBL5291721, “A preclinical secondary pharmacology resource illuminates target-adverse drug reaction associations of marketed drugs” (Nat Commun, 2023).

Legend:
Androgen receptor = target: T1, Androgen receptor (Homo sapiens, UniProt P10275)
T1 sequence (P10275 whole entry): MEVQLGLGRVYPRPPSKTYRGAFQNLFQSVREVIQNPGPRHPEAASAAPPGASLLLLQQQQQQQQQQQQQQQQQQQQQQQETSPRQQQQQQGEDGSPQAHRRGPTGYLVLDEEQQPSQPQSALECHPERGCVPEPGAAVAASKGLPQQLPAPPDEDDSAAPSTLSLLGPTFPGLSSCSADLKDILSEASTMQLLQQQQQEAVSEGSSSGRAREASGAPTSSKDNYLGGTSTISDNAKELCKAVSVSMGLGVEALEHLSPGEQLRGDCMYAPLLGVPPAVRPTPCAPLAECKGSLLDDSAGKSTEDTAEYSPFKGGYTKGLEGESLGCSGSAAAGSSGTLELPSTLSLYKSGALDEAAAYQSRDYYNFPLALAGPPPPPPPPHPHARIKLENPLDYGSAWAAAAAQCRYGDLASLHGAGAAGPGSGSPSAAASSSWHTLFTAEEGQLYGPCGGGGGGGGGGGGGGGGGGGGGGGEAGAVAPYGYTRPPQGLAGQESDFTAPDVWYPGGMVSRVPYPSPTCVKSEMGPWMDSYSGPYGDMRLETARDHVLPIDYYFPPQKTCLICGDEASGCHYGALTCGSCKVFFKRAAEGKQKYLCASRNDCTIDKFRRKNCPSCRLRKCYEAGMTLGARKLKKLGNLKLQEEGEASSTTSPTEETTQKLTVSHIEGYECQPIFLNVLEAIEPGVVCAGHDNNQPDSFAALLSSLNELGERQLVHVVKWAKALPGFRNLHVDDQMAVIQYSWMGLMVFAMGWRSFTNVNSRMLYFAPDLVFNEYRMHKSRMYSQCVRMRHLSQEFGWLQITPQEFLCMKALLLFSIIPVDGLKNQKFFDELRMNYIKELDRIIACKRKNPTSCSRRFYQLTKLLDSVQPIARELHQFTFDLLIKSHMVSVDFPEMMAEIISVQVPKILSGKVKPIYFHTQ

[1] = target: T2, 5-hydroxytryptamine receptor 1A (Homo sapiens, UniProt P08908)
T2 sequence (P08908 whole entry): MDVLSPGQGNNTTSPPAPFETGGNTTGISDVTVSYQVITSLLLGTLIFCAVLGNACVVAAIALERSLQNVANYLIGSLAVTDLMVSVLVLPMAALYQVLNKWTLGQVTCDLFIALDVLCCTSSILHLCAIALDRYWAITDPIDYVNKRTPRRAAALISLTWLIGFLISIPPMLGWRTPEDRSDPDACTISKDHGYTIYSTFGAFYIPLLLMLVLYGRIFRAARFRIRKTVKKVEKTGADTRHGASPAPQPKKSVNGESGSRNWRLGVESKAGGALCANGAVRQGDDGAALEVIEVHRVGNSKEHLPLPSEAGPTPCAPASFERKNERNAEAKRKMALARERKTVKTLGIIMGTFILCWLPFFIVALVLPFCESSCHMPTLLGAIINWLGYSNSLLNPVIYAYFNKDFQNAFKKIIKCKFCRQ

[2] = target: T3, Muscarinic acetylcholine receptor M1 (Homo sapiens, UniProt P11229); type: functional
T3 sequence (P11229 whole entry): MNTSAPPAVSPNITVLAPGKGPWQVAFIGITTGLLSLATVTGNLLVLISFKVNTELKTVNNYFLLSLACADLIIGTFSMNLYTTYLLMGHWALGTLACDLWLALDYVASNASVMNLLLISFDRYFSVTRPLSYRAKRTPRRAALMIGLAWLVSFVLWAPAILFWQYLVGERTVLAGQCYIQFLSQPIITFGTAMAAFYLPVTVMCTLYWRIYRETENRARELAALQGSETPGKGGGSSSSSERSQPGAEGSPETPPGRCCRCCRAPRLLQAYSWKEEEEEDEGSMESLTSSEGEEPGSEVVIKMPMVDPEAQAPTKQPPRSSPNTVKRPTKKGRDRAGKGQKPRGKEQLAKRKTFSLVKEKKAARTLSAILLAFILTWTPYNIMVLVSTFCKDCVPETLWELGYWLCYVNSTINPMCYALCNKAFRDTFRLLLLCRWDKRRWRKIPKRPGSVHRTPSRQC

Histamine H2 receptor = Histamine H2 receptor (Homo sapiens, UniProt P25021)
[3] = target: T4, Muscarinic acetylcholine receptor M2 (Homo sapiens, UniProt P08172)
T4 sequence (P08172 whole entry): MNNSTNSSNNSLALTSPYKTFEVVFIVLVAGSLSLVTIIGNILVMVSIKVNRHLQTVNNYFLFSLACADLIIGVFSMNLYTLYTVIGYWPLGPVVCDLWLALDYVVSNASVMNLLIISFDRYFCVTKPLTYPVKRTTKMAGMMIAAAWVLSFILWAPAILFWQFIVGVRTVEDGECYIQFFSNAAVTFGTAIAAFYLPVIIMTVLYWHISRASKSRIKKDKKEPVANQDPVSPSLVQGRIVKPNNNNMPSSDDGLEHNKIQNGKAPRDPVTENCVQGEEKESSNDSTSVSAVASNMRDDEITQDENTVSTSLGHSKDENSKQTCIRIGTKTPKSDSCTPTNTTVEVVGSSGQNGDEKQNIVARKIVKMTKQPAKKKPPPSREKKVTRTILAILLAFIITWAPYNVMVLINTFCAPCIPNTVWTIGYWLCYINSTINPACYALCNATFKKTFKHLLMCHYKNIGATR

Glucagon receptor = Glucagon receptor (Homo sapiens, UniProt P47871)
Histamine H1 receptor = Histamine H1 receptor (Homo sapiens, UniProt P35367)
[4] = target: T5, Endothelin receptor type B (Homo sapiens, UniProt P24530)
T5 sequence (P24530 whole entry): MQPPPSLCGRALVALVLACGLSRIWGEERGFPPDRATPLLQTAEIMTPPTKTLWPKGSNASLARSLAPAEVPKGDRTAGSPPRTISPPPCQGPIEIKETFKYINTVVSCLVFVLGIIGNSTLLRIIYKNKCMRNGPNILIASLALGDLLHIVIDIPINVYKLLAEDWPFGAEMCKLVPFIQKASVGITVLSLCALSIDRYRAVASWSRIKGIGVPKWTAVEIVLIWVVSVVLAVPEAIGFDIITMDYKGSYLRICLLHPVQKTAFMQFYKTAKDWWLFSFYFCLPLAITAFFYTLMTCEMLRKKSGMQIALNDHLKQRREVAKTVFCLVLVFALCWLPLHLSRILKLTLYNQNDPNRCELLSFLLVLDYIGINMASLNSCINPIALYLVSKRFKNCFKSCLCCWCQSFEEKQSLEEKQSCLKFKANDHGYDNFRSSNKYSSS
Further: assay procedure not described here.

Sequence of Glucagon receptor (P47871 whole entry): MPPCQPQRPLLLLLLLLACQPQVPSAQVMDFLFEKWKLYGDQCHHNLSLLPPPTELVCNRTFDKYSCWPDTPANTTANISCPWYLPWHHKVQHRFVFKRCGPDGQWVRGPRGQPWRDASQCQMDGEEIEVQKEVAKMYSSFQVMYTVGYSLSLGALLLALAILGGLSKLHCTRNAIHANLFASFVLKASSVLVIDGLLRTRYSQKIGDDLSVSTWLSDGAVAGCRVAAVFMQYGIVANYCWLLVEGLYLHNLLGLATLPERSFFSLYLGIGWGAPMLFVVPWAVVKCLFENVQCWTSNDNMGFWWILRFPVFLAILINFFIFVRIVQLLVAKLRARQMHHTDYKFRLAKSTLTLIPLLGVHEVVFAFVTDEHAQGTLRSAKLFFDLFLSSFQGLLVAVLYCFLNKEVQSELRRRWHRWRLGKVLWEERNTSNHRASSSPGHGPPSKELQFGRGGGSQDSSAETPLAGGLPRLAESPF
Sequence of Histamine H2 receptor (P25021 whole entry): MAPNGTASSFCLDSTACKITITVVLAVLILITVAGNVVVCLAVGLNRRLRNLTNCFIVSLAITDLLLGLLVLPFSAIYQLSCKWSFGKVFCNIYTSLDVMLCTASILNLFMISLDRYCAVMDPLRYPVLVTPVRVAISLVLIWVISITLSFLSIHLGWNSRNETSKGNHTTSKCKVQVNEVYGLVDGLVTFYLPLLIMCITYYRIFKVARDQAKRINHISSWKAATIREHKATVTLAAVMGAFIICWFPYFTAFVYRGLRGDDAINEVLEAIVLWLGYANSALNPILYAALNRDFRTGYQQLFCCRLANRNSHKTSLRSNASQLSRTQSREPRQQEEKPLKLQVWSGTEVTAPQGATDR
Sequence of Histamine H1 receptor (P35367 whole entry): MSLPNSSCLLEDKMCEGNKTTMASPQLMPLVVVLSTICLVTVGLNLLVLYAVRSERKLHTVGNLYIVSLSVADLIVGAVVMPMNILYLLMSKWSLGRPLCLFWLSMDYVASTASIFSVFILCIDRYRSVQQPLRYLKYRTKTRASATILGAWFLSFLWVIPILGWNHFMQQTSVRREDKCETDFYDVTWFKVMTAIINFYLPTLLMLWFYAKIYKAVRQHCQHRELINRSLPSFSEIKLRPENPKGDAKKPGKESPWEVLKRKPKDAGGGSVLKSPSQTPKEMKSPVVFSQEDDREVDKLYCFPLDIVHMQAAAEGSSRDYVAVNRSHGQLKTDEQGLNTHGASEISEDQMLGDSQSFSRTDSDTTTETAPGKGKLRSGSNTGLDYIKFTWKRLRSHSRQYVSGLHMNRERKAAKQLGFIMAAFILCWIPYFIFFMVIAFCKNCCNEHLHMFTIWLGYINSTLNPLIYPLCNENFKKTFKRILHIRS

N#Cc1ccc2c(c1)N(CCCN1CCC(O)CC1)c1ccccc1S2 [PERICIAZINE]
AC50 (Androgen receptor): > 30 µM

OC[C@H]1O[C@@H](c2ccc(F)c(Cc3cc4ccccc4s3)c2)[C@H](O)[C@@H](O)[C@@H]1O [IPRAGLIFLOZIN]
AC50 (Androgen receptor): > 30 µM

CN1CCC(=C2c3ccccc3Sc3ccccc32)CC1 [PIMETHIXENE]
AC50 (Androgen receptor): > 30 µM

O=C(O)COc1ccc(C(=O)c2cccs2)c(Cl)c1Cl
AC50 (Androgen receptor): > 30 µM

COc1ccccc1Oc1c(NS(=O)(=O)c2ccc(C(C)(C)C)cc2)nc(-c2ncccn2)nc1OCCO [BOSENTAN]
AC50 [1]: > 10 µM
AC50 [2]: > 10 µM
AC50 (Histamine H2 receptor): > 10 µM
AC50 [3]: > 10 µM
AC50 (Glucagon receptor): > 30 µM
AC50 (Histamine H1 receptor): > 10 µM

FC(F)(F)c1ccc(CNc2ccc(Cc3c[nH]c4ncc(Cl)cc34)cn2)cn1 [PEXIDARTINIB]
AC50 (Androgen receptor): > 30 µM

O=C1CCc2cc(OCCCCc3nnnn3C3CCCCC3)ccc2N1 [CILOSTAZOL]
AC50 [1]: > 10 µM

Nc1ccc(S(=O)(=O)Nc2nccs2)cc1 [SULFATHIAZOLE]
AC50 [1]: > 10 µM
AC50 (Histamine H2 receptor): > 10 µM
AC50 [4]: > 30 µM
AC50 [3]: > 10 µM
AC50 (Glucagon receptor): > 30 µM

COc1ccc(CC2c3cc(OC)c(OC)cc3CC[N+]2(C)CCC(=O)OCCCCCOC(=O)CC[N+]2(C)CCc3cc(OC)c(OC)cc3C2Cc2ccc(OC)c(OC)c2)cc1OC (stereo not given)
AC50 [2]: > 30 µM
AC50 (Histamine H1 receptor): > 30 µM

CC(=O)O[C@]1(C(C)=O)CC[C@H]2[C@@H]3C=C(C)C4=CC(=O)CC[C@@H]4[C@H]3CC[C@@]21C [NOMEGESTROL ACETATE]
AC50 [2]: > 30 µM
AC50 (Androgen receptor): 0.02 µM
AC50 (Histamine H1 receptor): > 30 µM

CC(C)C[C@H](NC(=O)CNC(=O)c1cc(Cl)ccc1Cl)B(O)O [IXAZOMIB]
AC50 (Androgen receptor): > 30 µM

O=C(O)c1cc(/N=N/c2ccc(O)c(C(=O)O)c2)ccc1O [OLSALAZINE]
AC50 (Androgen receptor): > 30 µM

C#C[C@]1(O)CC[C@H]2[C@@H]3CCC4=CC(=O)CC[C@@H]4[C@H]3C(=C)C[C@@]21CC [ETONOGESTREL]
AC50 [2]: > 30 µM
AC50 (Histamine H1 receptor): > 30 µM

CC[C@H](c1ccc(O)cc1)[C@@H](CC)c1ccc(O)cc1 [HEXESTROL]
AC50 (Androgen receptor): 6.95 µM

C/C=C/C/C=C/CCC(=O)[C@H]1O[C@H]1C(N)=O [CERULENIN]
AC50 (Androgen receptor): > 30 µM

C[C@H]1c2cccc(O)c2C(=O)C2=C(O)[C@]3(O)C(=O)C(C(N)=O)=C(O)[C@@H](N(C)C)[C@@H]3[C@@H](O)[C@@H]21 [DOXYCYCLINE]
AC50 [1]: > 10 µM
AC50 (Histamine H2 receptor): > 10 µM
AC50 [4]: > 30 µM
AC50 [3]: > 10 µM
AC50 (Glucagon receptor): > 30 µM

CCc1nc(C(N)=O)c(Nc2ccc(N3CCC(N4CCN(C)CC4)CC3)c(OC)c2)nc1NC1CCOCC1 [GILTERITINIB]
AC50 (Androgen receptor): > 30 µM

Cc1onc(-c2ccccc2)c1-c1ccc(S(N)(=O)=O)cc1 [VALDECOXIB]
AC50 [1]: > 10 µM
AC50 (Histamine H2 receptor): > 10 µM
AC50 [4]: > 30 µM
AC50 [3]: > 10 µM
AC50 (Glucagon receptor): > 30 µM

CCN(CC)CCNC(=O)c1c(C)[nH]c(/C=C2\C(=O)Nc3ccc(F)cc32)c1C [SUNITINIB]
AC50 [1]: 7.13 µM
AC50 [3]: 7.19 µM

CO[C@H]1/C=C/O[C@@]2(C)Oc3c(C)c(O)c4c(O)c(c(/C=N/N5CCN(C)CC5)c(O)c4c3C2=O)NC(=O)/C(C)=C\C=C\[C@H](C)[C@H](O)[C@@H](C)[C@@H](O)[C@@H](C)[C@H](OC(C)=O)[C@@H]1C [RIFAMPIN]
AC50 [1]: > 10 µM
AC50 (Histamine H2 receptor): > 10 µM
AC50 [4]: > 30 µM
AC50 (Glucagon receptor): > 30 µM

CCCC(CCC)C(=O)O [VALPROIC ACID]
AC50 [1]: > 10 µM
AC50 [4]: > 30 µM
AC50 [3]: > 10 µM
AC50 (Glucagon receptor): > 30 µM

CC(CN1CC(=O)NC(=O)C1)N1CC(=O)NC(=O)C1 (stereo not given) [RAZOXANE]
AC50 (Androgen receptor): > 30 µM

COc1cc2nc(N3CCN(C(=O)C4CCCO4)CC3)nc(N)c2cc1OC (stereo not given) [TERAZOSIN]
AC50 [1]: > 10 µM
AC50 (Histamine H2 receptor): > 10 µM
AC50 [4]: > 30 µM
AC50 [3]: > 10 µM
AC50 (Glucagon receptor): > 30 µM

CC(C)(O)CNc1nc(Nc2ccnc(C(F)(F)F)c2)nc(-c2cccc(C(F)(F)F)n2)n1 [ENASIDENIB]
AC50 (Androgen receptor): > 30 µM

CC(C)OC(=O)CCC/C=C\C[C@@H]1[C@@H](/C=C/C(F)(F)COc2ccccc2)[C@H](O)C[C@@H]1O [TAFLUPROST]
AC50 (Androgen receptor): > 30 µM

CC(C(=O)O)c1ccc2c(c1)[nH]c1ccc(Cl)cc12 (stereo not given) [CARPROFEN]
AC50 [2]: > 10 µM
AC50 (Histamine H1 receptor): > 10 µM

O=C1CN(/N=C/c2ccc(-c3ccc([N+](=O)[O-])cc3)o2)C(O)=N1 [DANTROLENE]
AC50 [2]: > 10 µM
AC50 (Histamine H1 receptor): > 10 µM

C[C@]12C=CC(=O)N[C@@H]1CC[C@@H]1[C@@H]2CC[C@]2(C)[C@@H](C(=O)Nc3cc(C(F)(F)F)ccc3C(F)(F)F)CC[C@@H]12 [DUTASTERIDE]
AC50 [2]: > 10 µM
AC50 (Histamine H1 receptor): > 10 µM

OC[C@H]1O[C@@H](c2ccc(Cl)c(Cc3ccc(O[C@H]4CCOC4)cc3)c2)[C@H](O)[C@@H](O)[C@@H]1O [EMPAGLIFLOZIN]
AC50 (Androgen receptor): > 30 µM

C=C[C@H]1C[N@@]2CC[C@H]1C[C@@H]2[C@@H](O)c1ccnc2ccc(OC)cc12 [QUINIDINE]
AC50 [1]: > 10 µM
AC50 [2]: > 10 µM
AC50 (Histamine H1 receptor): > 10 µM

CC(C)N(CCC(C(N)=O)(c1ccccc1)c1ccccn1)C(C)C (stereo not given) [DISOPYRAMIDE]
AC50 [1]: > 10 µM
AC50 [2]: > 10 µM
AC50 [4]: > 30 µM
AC50 (Glucagon receptor): > 30 µM
AC50 (Histamine H1 receptor): > 10 µM

CCOC(=O)c1c(C)cc2c(CO)n[nH]c(=O)c2c1C [OXAGRELATE]
AC50 (Androgen receptor): > 30 µM

C[C@@H]1C[C@H]2[C@@H]3CCC4=CC(=O)C=C[C@]4(C)[C@@]3(Cl)[C@@H](O)C[C@]2(C)[C@@]1(OC(=O)c1ccco1)C(=O)CCl [MOMETASONE FUROATE]
AC50 (Androgen receptor): 0.0337 µM

CC[C@H](C)C[C@H](C)CCCCCCCCC(=O)N[C@H]1C[C@@H](O)[C@@H](NCCN)NC(=O)[C@@H]2[C@@H](O)CCN2C(=O)[C@H]([C@H](O)CCN)NC(=O)[C@H]([C@H](O)[C@@H](O)c2ccc(O)cc2)NC(=O)[C@@H]2C[C@@H](O)CN2C(=O)[C@H]([C@@H](C)O)NC1=O [CASPOFUNGIN]
AC50 (Androgen receptor): > 30 µM
